Biological target: dGAE aggregates (Homo sapiens, UniProt P10636)
Assay: Epitope occlusion assay: dGAE aggregation with/without LMTM, 423 mAb capture ELISA
Type: biochemical
Settings: LMTM 1:5 ratio, 24 h 37 °C
Experimental: During dGAE aggregation in vitro, scAb binding regions on dGA/dGAE are ‘hidden’ or ‘occluded’ which leads to a loss of immunoreactivity in aggregation samples. Here we have shown the occlusion of binding regions in aggregated dGAE samples and the recovery of immunoreactivity in the presence of LMTM, a tau-aggregation inhibitor. For preparing the aggregates, 10 μl 10 mM DTT was added to 1000 μl 100 μM dGAE and agitated with/without LMTM (1:5 ratio) at 700 rpm for 24 h at 37° C. Following overnight agitation, one third of each sample was kept aside as ‘total’ and the rest was spun down at 16000×g for 30 min and separated into ‘supernatant’ and ‘pellet’. The pellet was then resuspended in half the original volume for further experiments. […] Doubling dilutions of dGAE aggregate ‘total’, ‘supernatant’ and ‘pellet’ samples at 10 μg/ml starting concentration were added to designated wells in doubling dilutions in 1×PBS. dGAE monomer (non-aggregated) was included as assay control. All double dilutions were done in final volumes of 100 μl. This was left to incubate on lab bench for 1 h followed by the addition of test scAbs at 10 μg/ml. Anti-HuCk HRP labelled secondary antibody was added as described previously and ELISA data generated is represented using the graph below.

Sequence of dGAE aggregates (P10636 614-708): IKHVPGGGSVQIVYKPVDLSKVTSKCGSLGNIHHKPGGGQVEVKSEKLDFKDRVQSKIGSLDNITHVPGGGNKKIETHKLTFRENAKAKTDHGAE

CN(C)c1ccc2c(c1)Sc1cc(N(C)C)ccc1N2.CS(=O)(=O)O.CS(=O)(=O)O [LMTM, reference compound]
effect on dGAE aggregation: preventing the aggregation event
